According to ChEMBL document CHEMBL2331167, “Inhibitory effect of novel somatostatin peptide analogues on human cancer cell growth based on the selective inhibition of DNA polymerase β” (Bioorg Med Chem, 2013):
Activity calls are given as the source filed them. The rule behind the calls is not given here.

Tests used:
HCT-116 [1] = experiment: Cytotoxicity against p53 -/- human HCT116 cells assessed as growth inhibition at 200 uM incubated for 24 hrs by WST-1 assay; type: functional, cell-based
HCT-116 [2] = experiment: Cytotoxicity against p53 +/+ human HCT116 cells assessed as growth inhibition incubated for 24 hrs by WST-1 assay; type: functional; details: HCT-116, 24 h, read-out: LD50 (the source's name)
HCT-116 [3] = experiment: Cytotoxicity against p53 +/+ human HCT116 cells assessed as growth inhibition at 200 uM incubated for 24 hrs by WST-1 assay; type: functional, cell-based

Structure (SMILES)	growth inhibition (GI) (HCT-116 [1])	CC50 (HCT-116 [2])	growth inhibition (GI) (HCT-116 [3])
CC(C)(C)OC(=O)N[C@@H](Cc1ccc(O)cc1)C(=O)N[C@@H](Cc1ccccc1)C(=O)Nc1cccc2ccccc12	Active	30.7 µM	Active
CC(C)(C)OC(=O)NCCC(=O)Nc1cccc2ccccc12	inactive		inactive
CC(C)[C@H](NC(=O)[C@H](Cc1ccc(O)cc1)NC(=O)OC(C)(C)C)C(=O)Nc1cccc2ccccc12	Active		Active
CC(C)(C)OC(=O)NCCCCCCC(=O)Nc1cccc2ccccc12	inactive		inactive
CC(C)(C)OC(=O)N[C@@H](Cc1ccc(O)cc1)C(=O)N[C@@H](CCC(=O)O)C(=O)Nc1cccc2ccccc12	inactive		inactive
CC(C)(C)OC(=O)N[C@@H](Cc1ccc(O)cc1)C(=O)N[C@@H](CC(=O)O)C(=O)Nc1cccc2ccccc12	inactive		inactive
CC(C)(C)OC(=O)NCCCCC(=O)Nc1cccc2ccccc12	inactive		inactive
CC(C)C[C@H](NC(=O)[C@H](Cc1ccc(O)cc1)NC(=O)OC(C)(C)C)C(=O)Nc1cccc2ccccc12	Active		Active
